What was measured:
[1] = test system: MPTP/3-NP-induced C57BL/6J mice; assay: Rotarod in MPTP plus 3-NP intoxicated mice (MSA-P model); type: in vivo, mouse; settings: 256 mg/kg body weight/day for one week after 9 days MPTP/3-NP, vs saline
Protocol: Male C57BL/6J mice (age, 8-12 weeks) were randomly assigned to 2 groups—vehicle control and MPTP/3-NP-induced groups. MPTP and 3-NP were administered during a 9-day intoxication period. 3-NP was administered i.p. every 12 h (total dose 450 mg/kg in 9 days) and MPTP i.p. at 10 mg/kg/day (total dose 90 mg/kg in 9 days).
Rotarod motor activity was measured before and after chronic MPTP/3-NP induction, respectively. Time spent on the rod at each level of revolving speed indicated motor performance. Mice were trained at the speed accelerating from 4 to 10 rpm over 5 min before the test (−7, −5, −3 Days). During the test, all animals started at 4 rpm and accelerated from 4 to 20 rpm over 5 min with each mouse experiencing three trials per day with inter-trial interval of 10 min. The average latency time of each mouse to fall is calculated.

[2] = test system: B6CBA-Tg(HDexon1)62Gpb/3J mice; assay: Survival of HDexon1 (R6/2) transgenic Huntington's disease mice; type: in vivo, mouse; settings: 256 mg/kg/day i.p. from 11 weeks after birth, vs vehicle-treated HDexon1 transgenic mice
Protocol: Animals used in the examples of the present disclosure were housed in an animal room under temperature control (24-25° C.) and 12:12 light-dark cycle. Standard laboratory chow and tap water were available ad libitum. The experiments procedures were approved by the Institutional Animal Care and Use Committee and were performed in compliance with national animal welfare regulations. Transgenic mice B6CBA-Tg(HDexon1)62Gpb/3J were purchased from the Jackson Laboratory (USA).
Drug regimen was initiated 11 weeks after birth, and continued until the end of study. […] The mice of vehicle group received injections of the same volume of saline.
Date and cause of death were recorded for each mouse. Animals were closely monitored and euthanized if moribund, which was defined as the inability of mice to right themselves 30 seconds after being placed on a side, in accordance with the criteria for severe morbidity. The moribund mice were recorded as “dead”, and euthanized using carbon dioxide.

[3] = test system: primary cortical neuronal culture; assay: Detection of cellular reactive oxygen species (CellROX) after 3-NP in primary cortical culture; type: cell-based, rat
Protocol: Reactive oxygen species (ROS) are detected on primary cortical neuronal culture by CellROX Oxidative Reagents (catalog number 10444, Life Technologies Corp. USA). […] The cells were then exposed to 2.5 mM 3-NP for 24 hours. Subsequently, […] CellROX Reagent was added, and then incubated for […]. CellROX Green Reagent is a DNA dye, and upon oxidation, it binds to DNA; thus, its signal is localized in the nucleus and mitochondria. ROS were quantified by fluorescence intensity. The samples were observed under a laser scanning confocal microscope Zeiss LSM700 (Zeiss, Germany) equipped with filter sets to detect fluorescent signal.

primary cortical neurons = assay: Aβ25-35 cytotoxicity in primary cortical culture, cell survival (MTT)
Protocol: MTT assay was used to assess the extents of cell survival. MTT (3-(4,5-dimethylthiazol-2-yl)-2,5-diphenyltetrazolium bromide) was added to the culture, incubated at 37° C. for 4 hours. Insoluble purple formazan products were yield by living cells. The colorimetric method was used to quantify the surviving cells, and “cell survival (%)” was defined as the mean numbers of surviving cells.
Primary cortical cultures were prepared as previous described. Aβ25-35 (Cat. No. A4559, Sigma) was dissolved in autoclaved ddH2O to make a stock solution of 2 mM, dispensed into aliquots, and immediately stored at −80° C. until use.

primary cortical cells = assay: Oxygen-glucose deprivation (OGD) of primary cortical culture, MTT assay; type: cell-based, rat
Source text: The oxygen-glucose deprivation (OGD) is a common and well-validated cell model used for brain injuries like stroke-related studies. […] To induce the OGD model, the Neurobasal medium supplemented with B27 (GIBCO/Life Technologies of Thermo Fisher Scientific Corporation) was removed from the cultures, and then rinsed with Neurobasal-A Medium (no D-glucose and sodium pyruvate [GIBCO/Life Technologies of Thermo Fisher Scientific Corporation]). The cultured cells were maintained in a humidified incubator at 37° C. with 5% CO2 for 1 h to consume the resting glucose and pyruvate. The cultures were then subjected to an anaerobic environment of 95% N2-5% CO2 for 4 hours. Oxygen concentration was monitored by an oxygen analyzer (Proox-110, Demott St, Lacona, N.Y., USA), as maintained at approximately 1.0% throughout the experiment.

cortical neurons = assay: Mitochondrial respiration, XF Cell Mito Stress Test (OCR); type: cell-based, rat; settings: 3 mM, pre-treatment 24 h
Protocol: The preparation of primary cortical culture was as described before, but the cells were seeded on XF 96 well cell culture microplates. On the day of assay, culture media were changed to XF Assay medium (Seahorse Biosciences, USA). Prior to assay, plates were transferred into an incubator with CO2 supplementation at 37° C. and kept for 1 hour. The overall OCR was calculated.
The XF Cell Mito Stress Test modulates respiration that target components of the electron transport chain (ETC) in the mitochondria to reveal key parameters of metabolic function. The modulators (oligomycin, FCCP, and a mix of rotenone and antimycin A) are serially injected to measure ATP production, maximal respiration, and non-mitochondrial respiration. Proton leak and spare respiratory capacity are then calculated using these parameters.

[4] = test system: cortical cells with Aβ25-35 exposure; assay: Aβ25-35 cytotoxicity with or without NMDA receptor antagonist MK801, cell survival
Protocol: Aβ25-35 (Cat. No. A4559, Sigma) was dissolved in autoclaved ddH2O to make a stock solution of 2 mM, dispensed into aliquots, and immediately stored at −80° C. until use.
In this study, the application of MK801 could reveal whether the neuroprotective effects of drugs were mediated by NMDA receptor.

SH-SY5Y cells = assay: MPTP toxicity in SH-SY5Y cells, MTT assay; type: cell-based, human
Protocol: SH-SY5Y, the human neuroblastoma cell line, was incubated with MPTP (750 μM) for 24 hrs.

O=C([O-])c1ccccc1.[Li+] [lithium benzoate]
retention time on rotarod [1]: significantly improved | proportion of mice surviving over time [2]: improved | ROS reduction effect compared with sodium benzoate and lithium chloride ([3]; 0.5 mM each): much more significant | ROS production induced by 3-NP ([3]; 0.5 mM, incubated 24 hours before 3-NP): back to the basal level | ROS production induced by 3-NP ([3]; lithium benzoate 0.5, 1 or 3 mM 24 h, then 2.5 mM 3-NP 24 h): significantly reduced | cortical cell survival after Aβ25-35 (primary cortical neurons; 10 μM Aβ 25-35 for 2 days, then drug 1 mM for 4 days, vs no drug treatment): statistical improvement | reduction of cell death from Aβ25-35 toxicity compared with sodium benzoate and lithium chloride (primary cortical neurons; 1 mM each, 4 days): much more than the other two drugs | cell survival under oxygen-glucose deprivation (primary cortical cells; overall treatment 53 hours (pre-treatment 24 h, habituation 1 h, OGD 4 h, reperfusion 24 h), 0.3, 1, 3, 5 mM): significantly protected | cell survival under oxygen-glucose deprivation (primary cortical cells; post-treatment for 48 hours reperfusion): cell protection effect at all dose levels | basal respiration (basal OCR) (cortical neurons): reduced more basal OCR than the other groups | spare respiratory capacity (cortical neurons): increasing of spare respiratory capacity | ATP production (cortical neurons; versus NaBen or LiCl): better reduction levels | proton leak (cortical neurons; versus NaBen or LiCl): better reduction levels | protective effect with or without MK801 treatment ([4]; 0.5 mM, MK801 10 μM vs 0 μM): No obvious differences | cell survival with Aβ25-35 exposure ([4]; post-treatment 0.5 mM, MK801 0 μM): elevate the cell survival | cell survival improvement compared with sodium benzoate and lithium chloride (SH-SY5Y cells; 1 mM each, MPTP 750 μM): better performance of cell survival improvement than the other two groups | dose at which the protective effect was most obvious (SH-SY5Y cells; 0.3, 1, 3 mM tested, MPTP): 1 mM
